From patent publication US8273337B2, “Hair binding peptides and peptide-based hair reagents for personal care” (Affinergy Inc., priority 2007, dated 2012)

Experiments:
90% gray hair [1] = experiment: ELISA hair-binding activity of biotinylated peptides on hair bundles; set-up: species or system human; details: 20 μM biotinylated peptide in TBST and 1 mg/mL BSA, 1 hour at room temperature, 90% gray hair bundles, streptavidin-HRP detection; mean of at least three replicates
From the text: Enzyme-linked immunosorbent assay (ELISA) was used to evaluate the hair-binding affinity of the biopanning selected peptide candidates (Example 1; biotinylated peptides SEQ ID NOs: 25, 27, 29, 30, and 32). The identified peptides along with a positive control peptide Gray3 (given as SEQ ID NO: 34; previously reported in co-pending U.S. patent application Ser. No. 11/251,715 corresponding to U.S. Patent Application Publication No. 2006/0073111) were synthesized using standard solid […] synthesis method (U.S. Ser. No. 11/251/715).
The resulting absorbance values, reported as the mean of at least three replicates, and the standard error of the mean (SEM) are given in Table 3.

90% gray hair [2] = details: substrate 90% gray hair; peptide concentration giving 50% of the maximum ELISA signal; calculated from Scatchard plots
Experimental: (§1) The MB50 provides an indication of the strength of the binding interaction or affinity of the components of the complex.
as §1
The hair samples were assembled in bundles consisting of 100 hairs about 1 cm long which were bundled together using narrow tape at one end. […] Peptide binding buffer consisting of various concentrations of biotinylated peptide in TBST and 1 mg/mL BSA was added to the hair bundles and incubated for 1 hour at room temperature, followed by 6 TBST washes. […] The results were plotted as A450 versus the concentration of peptide using GraphPad Prism 4.0 (GraphPad Software, Inc., San Diego, Calif.).

## EGASVASASDSVDSSYYSR-GSSGK (biotin) [Aff15017]
90% gray hair [1]
  Hair A405 nm: 0.184

## Gray3: positive control hair-binding peptide previously reported in U.S. Patent Application Publication No. 2006/0073111 (HDHKNQKETHQRHAA; Hair-binding peptide) [reference compound]
90% gray hair [1]
  Hair A405 nm: 0.448

## SRKSSQKNPHHPKPPKKPTAR-GSSGK (biotin) [Aff15014]
90% gray hair [1]
  Hair A405 nm: 0.871
90% gray hair [2]
  MB50: 33 nM

## SSEGASVASASDSVDSSYYSRKSSQKNPHHPKPPKKPTAR-GSSGK (biotin) [Aff15023]
90% gray hair [1]
  Hair A405 nm: 0.66

## SSNDSNVSWFHYYASGLTSSR-GSSG-SRKSSQKNPHHPKPPKKPTAR-GSSGK (biotin) [Aff15025]
90% gray hair [1]
  Hair A405 nm: 0.86

## VRPNLHRKAKAKPDHKQSENRKVPFYSH-GSSGK (biotin) [Aff15012]
90% gray hair [1]
  Hair A405 nm: 0.873
90% gray hair [2]
  MB50: 24 nM
